14 compounds from patent US9051326B2, “Pyrazoline derivatives and their use as selective androgen receptor modulators” (NOVARTIS AG, priority 2011, dated 2015) can be followed below.

Read-outs that look alike come from different tables or passages of the source.

The target of series [1] is T1, androgen receptor (AR) (Homo sapiens, UniProt P10275).
T1 construct: transfecting C2C12 cells with a plasmid containing full-length AR along with an AR response element linked to luciferase; expressed in transfected cells; host or cells: mouse myoblastic C2C12 cells (ATCC CRL-1772), transient transfection with Lipofectamine 2000
T1 sequence (P10275 1-920): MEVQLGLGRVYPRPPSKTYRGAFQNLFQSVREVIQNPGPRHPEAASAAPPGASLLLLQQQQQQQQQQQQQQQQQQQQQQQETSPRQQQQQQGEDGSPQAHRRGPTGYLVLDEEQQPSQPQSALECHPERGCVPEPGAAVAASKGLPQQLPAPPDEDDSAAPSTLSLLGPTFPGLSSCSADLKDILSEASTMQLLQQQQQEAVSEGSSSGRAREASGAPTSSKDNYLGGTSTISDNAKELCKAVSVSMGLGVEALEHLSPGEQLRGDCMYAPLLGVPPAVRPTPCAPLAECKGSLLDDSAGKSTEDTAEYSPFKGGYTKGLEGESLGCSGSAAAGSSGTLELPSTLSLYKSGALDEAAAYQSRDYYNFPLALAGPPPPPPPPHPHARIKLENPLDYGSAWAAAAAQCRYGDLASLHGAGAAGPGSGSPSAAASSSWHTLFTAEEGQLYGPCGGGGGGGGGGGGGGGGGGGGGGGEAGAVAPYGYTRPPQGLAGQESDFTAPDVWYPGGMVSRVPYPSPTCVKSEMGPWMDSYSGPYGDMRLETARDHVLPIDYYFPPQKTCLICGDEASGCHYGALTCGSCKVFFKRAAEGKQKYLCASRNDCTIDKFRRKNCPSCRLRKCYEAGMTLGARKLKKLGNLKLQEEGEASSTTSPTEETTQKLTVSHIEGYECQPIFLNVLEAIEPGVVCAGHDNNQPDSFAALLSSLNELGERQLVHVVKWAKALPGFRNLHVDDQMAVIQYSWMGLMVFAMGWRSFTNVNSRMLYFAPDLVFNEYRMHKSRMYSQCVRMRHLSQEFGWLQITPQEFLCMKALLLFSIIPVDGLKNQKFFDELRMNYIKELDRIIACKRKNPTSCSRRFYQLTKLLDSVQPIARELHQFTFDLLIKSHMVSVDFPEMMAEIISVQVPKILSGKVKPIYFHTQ
The experiment in a line: AR transcriptional activation luciferase reporter assay in C2C12 cells (Test 1). It counts as cell-based. On the procedure: A suitable assay to determine the ability of a ligand to transcriptionally activate androgen receptor (AR) is carried out using mouse myoblastic C2C12 cells. The assay involves transfecting C2C12 cells with a plasmid containing full-length AR along with an AR response element linked to luciferase (2XIDR17). The luminescence read-out at the end of the assay is measured using Victor 3 and is a direct measure of the transcriptional activity. The assay has been validated using the reference compound, BMS-564929, for which EC50 values have been reported in a similar set-up. Other tool compounds that have been used for assay validation are GSK-420A, Andarine, putative Ostarine, and LGD-2226.
C2C12 cells were obtained from ATCC (Cat # CRL-1772) and maintained in DMEM modified to contain 4 mM L-glutamine, 4.5 g/L glucose, 1 mM sodium pyruvate and 1.5 g/L sodium bicarbonate and 10% FBS.
AR-FL in pcDNA 3.1(+) and 2XIDR17 in pGL4.26 plasmids prepared using Genelute plasmid miniprep kit from Sigma Cat # PLED35
• C2C12 cells were seeded in a 96-well plate in DMEM (Dulbecco's Modified Eagle Medium) without phenol red and containing 10% CS-FBS (Charcoal-stripped Fetal Bovine Serum) at 8000 cells/well. • The next day, cells were transfected with an equimolar ratio of (Androgen Receptor-Full length) AR-FL and 2XIDR17-Luciferase at a total plasmid concentration of 200 ng/well using Lipofectamine 2000 following manufacturer's protocol. • For the transfection, 83 ng of AR-FL and 117 ng of 2XIDR17-Luciferase were in 12.5 μl of OptiMEM—Mix A. 0.4 μl of Lipofectamine 2000 was added to 12.5 μl of OptiMEM and incubated for 5 min at room temperature—Mix B. The two mixes A and B were mixed and incubated at room temperature for an additional fifteen minutes. An additional 50 μl of OptiMEM was added, gently mixed and this mixture was added to the cells in the 96-well plate. The above quantities are requirements per well of a 96-well plate. Master mixes were made for the entire plate, with proportional quantity of reagents being used. • 5 h after transfection, compounds were added to the wells in DMEM without phenol red and containing 10% CS-FBS, maintaining a final DMSO concentration of 0.5%. A typical dose response curve starts at 10 μM and includes a 7-point, log dilution, done in triplicates. • After overnight incubation with the compounds, 100 ul of working solution of Steadyglow reagent was added to the wells. • The plates were placed in a shaker for 15 min at the end of which the lysate containing luciferase was transferred to a white flat-bottom plate and read under a luminescence setting in Victor. • Background subtracted counts (Luminescence from DMSO control wells is considered the background) are used to calculate percentage activity, expressed relative to activity with 1 μM (Dihydrotestosterone) DHT (at least two sets of triplicates for 1 μM DHT are included per plate). Data Fitting: • The EC50 curves for the compounds for 8 compound concentrations were fitted by the respective function using non-linear least-squares regression in Graphpad Prism 4.0 (Graphpad Software, San Diego, Calif., USA).

Series [2] relates to orchidectomized male Wistar rats. Kind of series: In vivo modified Hershberger assay (Test 2). Also noted: species or system rat. Conditions: for luteinizing hormone (LH) levels / weights of levator ani compared to prostate: 14 days treatment; for luteinizing hormone (LH) levels: in comparison to ORX animals; for plasma drug concentration: day 15, 3 hours after last dose; for weights of levator ani compared to prostate: orchidectomized male rats. The method, then: The test article Testosterone Propionate is dissolved using 10% ethanol, 90% corn oil. Ostarine is suspended in 1% CMC, 0.1% Tween-80, water. Compounds of examples 1 and 5 are dissolved in 50% PEG 200 and 50% of saline. Ostarine is administered orally at 1 ml/kg volume. Testosterone Propionate, Compounds of examples 1 and 5 are administered subcutaneously to 14 days prior orchidectomized male rats at 1 ml per kg body weight for a period of 14 days. Each group of 6 rats receives dosages of 0.01, 0.1, 1 and 10 mg/kg. 6 animals each serves as sham control and ORX control and are administered vehicle at 1 ml/kg.
Testosterone Propionate is subcutaneously administered at doses of 0.03, 0.1, 0.3, 1.3 and 10 mg/kg. Ostarine is given orally at doses of 0.001, 0.003, 0.01, 0.03, 0.1, 0.3, 1.3 and 10 mg/kg.
The various investigations like mortality, clinical signs, body weight, food consumption, drug concentration analysis (day 15), clinical pathology and gross pathology parameters are performed on all groups.
Evaluation of Testosterone Propionate, Ostarine, examples 1 and 5 in modified Hershberger assay in male wistar rats was conducted at the Department of Preclinical Biology, Aurigene Discovery Technologies Ltd., Bangalore, India.

By EC50 is commonly meant the concentration that produces a half-maximal response. As for `CO[C@@H]1C(c2ccc(C#N)c(Cl)c2C)=NN2CC[C@H](O)[C@@H]12` [Example 1, 2-chloro-4-((3S,3aS,4S)-4-hydroxy-3-methoxy-3a,4,5,6-tetrahydro-3H-pyrrolo[1,2-b]pyrazol-2-yl)-3-methylbenzonitrile], in series [1] (mouse myoblastic C2C12 cells transfected with AR-FL and 2XIDR17-luciferase, read-out: Biological activity (C2C12 cell) EC50), the EC50 was found to be 0.5 nM. Also, in series [2], the “luteinizing hormone (LH) levels” value is given as “concurrent decrease of LH levels”, the plasma drug concentration entry is reported as “dose dependent increase” and the “weights of levator ani compared to prostate” value (from here on “weights … compared to prostate”) is “dose dependent selective increase in weights of levator ani compared to prostate”.

In the case of `CCO[C@@H]1C(c2ccc(C#N)c(Cl)c2C)=NN2CC[C@H](O)[C@@H]12` [Example 5, 2-chloro-4-((3S,3aS,4S)-3-ethoxy-4-hydroxy-3a,4,5,6-tetrahydro-3H-pyrrolo[1,2-b]pyrazol-2-yl)-3-methylbenzonitrile], a half-maximal effect in series [1] (EC50) was put at 1.2 nM. In series [2], the “luteinizing hormone (LH) levels” value was “concurrent decrease of LH levels”, the plasma drug concentration entry is recorded as “dose dependent increase” and the “weights … compared to prostate” value is on record as “dose dependent selective increase in weights of levator ani compared to prostate”.

In series [1], `COCCO[C@@H]1C(c2ccc(C#N)c(Cl)c2C)=NN2CC[C@@H](F)[C@@H]12` [Example 22, 2-chloro-4-((3S,3aR,4R)-4-fluoro-3-(2-methoxyethoxy)-3a,4,5,6-tetrahydro-3H-pyrrolo[1,2-b]pyrazol-2-yl)-3-methylbenzonitrile] yielded an EC50 of 0.98 nM.

For `Cc1c(C2=NN3CC[C@@H](F)[C@H]3[C@@H]2OCCF)ccc(C#N)c1Cl` [Example 23, 2-chloro-4-((3S,3aR,4R)-4-fluoro-3-(2-fluoroethoxy)-3a,4,5,6-tetrahydro-3H-pyrrolo[1,2-b]pyrazol-2-yl)-3-methylbenzonitrile], the concentration giving a half-maximal response (EC50) in series [1] is 0.41 nM.

Consider `COCCO[C@@H]1C(c2ccc(C#N)c(Cl)c2C)=NN2CC(F)(F)C[C@@H]12` [Example 24, 2-chloro-4-((3S,3aS)-5,5-difluoro-3-(2-methoxyethoxy)-3a,4,5,6-tetrahydro-3H-pyrrolo[1,2-b]pyrazol-2-yl)-3-methylbenzonitrile], for which, in series [1], a half-maximal response (EC50) required 5.6 nM.

`CO[C@@H]1C(c2ccc(C#N)c(Cl)c2C)=NN2C[C@H](O)[C@H](O)[C@@H]12` [Example 25, 2-chloro-4-((3S,3aS,4R,5S)-4,5-dihydroxy-3-methoxy-3a,4,5,6-tetrahydro-3H-pyrrolo[1,2-b]pyrazol-2-yl)-3-methylbenzonitrile]: it took 51.2 nM to reach a half-maximal effect in series [1] (EC50).

`COCCO[C@@H]1C(c2ccc(C#N)c(Cl)c2C)=NN2C[C@H](O)C[C@@H]12` [Example 26] returned an EC50 in series [1] of 158 nM.

In series [1], `COCCO[C@@H]1C(c2ccc(C#N)c(Cl)c2C)=NN2C[C@@H](F)C[C@@H]12` [Example 27] gave an EC50 of 65.8 nM.

For `COCCO[C@@H]1C(c2ccc(C#N)c(Cl)c2C)=NN2CC(=O)C[C@@H]12` [Example 28], the midpoint of the response in series [1], the EC50, lay at 175 nM.

Consider `COCCCO[C@@H]1C(c2ccc(C#N)c(Cl)c2C)=NN2C[C@H](O)C[C@@H]12` [Example 29], for which the EC50 in series [1] worked out at 40 nM.

In series [1], `COCCCO[C@@H]1C(c2ccc(C#N)c(Cl)c2C)=NN2CC(=O)C[C@@H]12` [Example 30] showed an EC50 of 56 nM.

For the compound `COCCCO[C@@H]1C(c2ccc(C#N)c(Cl)c2C)=NN2CC(F)(F)C[C@@H]12` [Example 31], the EC50 in series [1] turned out to be 11.4 nM.

In the case of `C[C@](O)(COc1ccc(C#N)cc1)C(=O)Nc1ccc(C#N)c(C(F)(F)F)c1` [Ostarine, reference compound], in series [2], the “luteinizing hormone (LH) levels” value is “concurrent decrease of LH levels”, the plasma drug concentration result was “dose dependent increase” and the “weights … compared to prostate” value is “dose dependent selective increase in weights of levator ani compared to prostate”.

Take `CCC(=O)O[C@H]1CC[C@H]2[C@@H]3CCC4=CC(=O)CC[C@]4(C)[C@H]3CC[C@]12C` [Testosterone Propionate, reference compound]: in series [2], the “weights … compared to prostate” value is “did not show any selectivity on levator ani versus prostate”.
